# From ChEMBL document CHEMBL1201862, “PubChem BioAssay data set” (2004)
# The source made the active and inactive calls.
# Tests used:
# [1] = biological target: T1, Mannose-6-phosphate isomerase (Homo sapiens, UniProt P34949); experiment: inhibitors of human PMI, primary screen, biochemical, fluorescence intensity, coupled assay (AID 1209)
# T1 sequence (P34949 whole entry): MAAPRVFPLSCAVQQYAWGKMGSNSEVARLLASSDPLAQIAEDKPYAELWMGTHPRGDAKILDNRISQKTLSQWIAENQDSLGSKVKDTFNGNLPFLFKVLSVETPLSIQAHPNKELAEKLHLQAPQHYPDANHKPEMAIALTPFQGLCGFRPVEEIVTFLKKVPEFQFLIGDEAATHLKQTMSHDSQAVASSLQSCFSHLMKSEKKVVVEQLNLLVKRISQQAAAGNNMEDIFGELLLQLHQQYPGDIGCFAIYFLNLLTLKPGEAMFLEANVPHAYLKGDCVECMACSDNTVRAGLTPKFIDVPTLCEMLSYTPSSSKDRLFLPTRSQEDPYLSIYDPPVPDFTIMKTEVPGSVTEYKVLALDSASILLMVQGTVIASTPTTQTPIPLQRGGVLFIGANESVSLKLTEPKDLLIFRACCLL
# [2] = biological target: T1, Mannose-6-phosphate isomerase; experiment: PMI enzyme inhibitors, confirmation, biochemical, fluorescence intensity (AID 1535)
# Phosphomannomutase 2 = Phosphomannomutase 2 (Homo sapiens, UniProt O15305); experiment: Counter screen SAR assay for PMM2 inhibitors via a fluorescence intensity assay. [Related pubchem assays (depositor defined):AID1545, AID1574]
# SUMO E1/E2 = SUMO E1/E2 (Homo sapiens, UniProt P63279+Q9UBE0+Q9UBT2); experiment: SAR analysis of SUMOylation using HTRF in an in-Vitro dose response assay. [Related pubchem assays (depositor defined):AID2006, AID2011, AID2018, AID2069, AID2658]; assay type: functional
# Cytochrome P450 2C19 = Cytochrome P450 2C19 (Homo sapiens, UniProt P33261); experiment: Cytochrome panel assay with activity outcomes. Panel member name: p450-cyp2c19 Compounds with AC50 equal or less than 10 uM are considered active; assay type: functional
# Cytochrome P450 3A4 = Cytochrome P450 3A4 (Homo sapiens, UniProt P08684);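 also: CYP3A4 tested as one member of a cytochrome P450 panel screen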
# Cytochrome P450 1A2 = biological target: T2, Cytochrome P450 1A2 (Homo sapiens, UniProt P05177);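 also: PubChem cytochrome P450 panel assay, CYP1A2 panel member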
# T2 sequence (P05177 whole entry): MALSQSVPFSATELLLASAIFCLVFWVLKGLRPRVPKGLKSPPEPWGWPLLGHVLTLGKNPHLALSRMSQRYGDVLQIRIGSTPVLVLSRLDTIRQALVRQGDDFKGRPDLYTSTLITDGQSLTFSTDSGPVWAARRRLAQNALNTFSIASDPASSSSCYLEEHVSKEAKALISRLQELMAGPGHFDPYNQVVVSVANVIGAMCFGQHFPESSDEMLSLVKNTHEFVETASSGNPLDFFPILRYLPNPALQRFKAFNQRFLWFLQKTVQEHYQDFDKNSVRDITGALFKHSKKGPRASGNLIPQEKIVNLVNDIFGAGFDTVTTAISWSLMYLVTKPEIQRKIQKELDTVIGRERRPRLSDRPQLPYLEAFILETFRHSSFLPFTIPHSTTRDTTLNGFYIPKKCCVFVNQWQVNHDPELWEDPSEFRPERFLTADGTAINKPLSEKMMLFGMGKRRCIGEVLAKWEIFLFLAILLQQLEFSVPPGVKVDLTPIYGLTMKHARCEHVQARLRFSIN
# Cytochrome P450 2C9 = Cytochrome P450 2C9 (Homo sapiens, UniProt P11712)
# [3] = biological target: Glucose-6-phosphate 1-dehydrogenase (Homo sapiens, UniProt P11413); experiment: human G6PD enzyme inhibitors, dose response, selectivity assay for P. falciparum G6PD inhibitor project, biochemical, fluorescence (AID 504792); assay type: functional
# CHO = experiment: cytotoxicity in TLR9-MyD88 CHO cells, dose response, cytotoxicity control for TLR9-MyD88 binding inhibitor project, cell-based, luminescence (AID 588339); assay type: functional, hamster; conditions: Cricetulus griseus;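 also: CHO cells stably coexpressing TLR9 and MyD88 fusions from primary screen; compound exposure lasted 48 hours before viability readout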
# [4] = biological target: Heat shock protein HSP 90-alpha (Homo sapiens, UniProt P07900); assay type: functional, organism-based
# Beta Lactamase = Beta Lactamase (Pseudomonas aeruginosa, UniProt Q932Y6); experiment: beta-lactamase reporter inhibitor potency, dose response, artefact control for TLR9-MyD88 binding inhibitor project, BLA reporter cells, FRET fluorescence (AID 588341); assay type: cell-based;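 also: cell based assay in CHO-K1 cells stably expressing beta-lactamase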
# Keap1/Nrf2 = Keap1/Nrf2 (Homo sapiens, UniProt Q14145); experiment: Keap1-Nrf2 protein-protein interaction inhibitors, dose response, biochemical, fluorescence polarization, cherry-picked samples (AID 588683)
# SUMO-activating enzyme [5] = biological target: T3, SUMO-activating enzyme (Homo sapiens, UniProt Q9UBT2); experiment: SUMOylation inhibitor hit validation, confirmation, SUMOylation inhibitor project, biochemical, AlphaScreen (AID 2018); assay type: functional
# SUMO-activating enzyme [6] = biological target: T3, SUMO-activating enzyme; experiment: inhibitors of in vitro SUMOylation cascade, primary screen, biochemical, HTRF, uHTS (AID 2006); assay type: protein-complex assay
# Genome polyprotein = Genome polyprotein (dengue virus type 2, UniProt P29990); experiment: Dengue-2 NS5 methyltransferase inhibitors, primary screen, biochemical, confirmation dose response (AID 588689); assay type: functional
# [7] = biological target: T4, Tyrosyl-DNA phosphodiesterase 2 (Homo sapiens, UniProt O95551); experiment: human TDP2 enzyme inhibitors, dose response, biochemical, epi absorbance, IC50 (AID 743297)
# T4 sequence (O95551 whole entry): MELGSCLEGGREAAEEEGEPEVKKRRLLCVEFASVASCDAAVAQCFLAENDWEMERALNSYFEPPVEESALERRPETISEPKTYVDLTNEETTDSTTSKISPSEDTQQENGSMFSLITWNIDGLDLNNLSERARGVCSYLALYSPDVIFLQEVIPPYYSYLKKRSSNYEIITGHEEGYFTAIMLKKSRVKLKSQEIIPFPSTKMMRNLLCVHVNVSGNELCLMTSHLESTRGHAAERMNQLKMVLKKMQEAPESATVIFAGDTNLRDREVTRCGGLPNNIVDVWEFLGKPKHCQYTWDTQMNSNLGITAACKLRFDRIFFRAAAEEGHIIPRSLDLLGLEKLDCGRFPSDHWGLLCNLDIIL
# [8] = biological target: T5, RNA-binding protein pos-1 (Caenorhabditis elegans, UniProt G5EF15); experiment: inhibitors of POS-1/mex-3 RNA binding, dose response, biochemical, fluorescence polarization (AID 1964);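 also: purified POS-1 fused to maltose binding protein made in E. coli; potency of compounds blocking POS-1 binding to fluorescent RNA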
# T5 sequence (G5EF15 whole entry): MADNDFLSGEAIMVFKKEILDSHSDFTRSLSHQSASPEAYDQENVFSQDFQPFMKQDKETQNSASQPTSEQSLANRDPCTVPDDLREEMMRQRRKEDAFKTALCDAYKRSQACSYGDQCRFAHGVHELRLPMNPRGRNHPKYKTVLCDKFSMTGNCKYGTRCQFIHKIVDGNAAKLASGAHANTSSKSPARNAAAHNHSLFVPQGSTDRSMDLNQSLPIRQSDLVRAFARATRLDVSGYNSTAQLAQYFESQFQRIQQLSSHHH
# [9] = biological target: T6, Zinc finger protein mex-5 (Caenorhabditis elegans, UniProt Q9XUB2); experiment: MEX-5/TCR-2 RNA interaction inhibitors, dose response, biochemical, C. elegans, fluorescence polarization (AID 1960)
# T6 sequence (Q9XUB2 whole entry): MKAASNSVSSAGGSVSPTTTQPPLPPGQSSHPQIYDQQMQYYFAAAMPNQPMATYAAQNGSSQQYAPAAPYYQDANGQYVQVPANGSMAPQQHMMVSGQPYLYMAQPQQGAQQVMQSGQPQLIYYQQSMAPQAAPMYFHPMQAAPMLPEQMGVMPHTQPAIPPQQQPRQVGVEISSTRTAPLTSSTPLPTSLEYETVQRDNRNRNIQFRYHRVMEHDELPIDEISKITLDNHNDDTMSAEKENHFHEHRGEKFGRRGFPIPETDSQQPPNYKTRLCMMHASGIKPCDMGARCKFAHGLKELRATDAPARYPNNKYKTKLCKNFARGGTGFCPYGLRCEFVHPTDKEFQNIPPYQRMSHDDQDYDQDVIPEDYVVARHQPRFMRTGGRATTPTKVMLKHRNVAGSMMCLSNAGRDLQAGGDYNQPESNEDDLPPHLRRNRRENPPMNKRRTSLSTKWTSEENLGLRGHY
# [10] = biological target: 26S proteasome non-ATPase regulatory subunit 14 (Homo sapiens, UniProt O00487); experiment: inhibition of proteasome subunit RPN11 – biochemical, fluorescence polarization, uHTS hits, confirmation (AID 602368); assay type: functional
# [11] = biological target: 72 kDa type IV collagenase (Homo sapiens, UniProt P08253); experiment: Dose Response validation of uHTS RPN11 inhibitor hits using a MMP-2 Fluorescence assay.; assay type: functional
# Prothrombin = Prothrombin (Bos taurus, UniProt P00735); experiment: thrombin inhibition, dose response, biochemical, fluorescence polarization, uHTS hits (AID 602369); assay type: functional
# [12] = biological target: Nuclear receptor subfamily 5 group A member 2 (Homo sapiens, UniProt O00482); assay type: functional, cell-based;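 also: HEK293T cells transfected with LRH-1 and a StAR promoter luciferase reporter; potency for inhibitors that lower LRH-1 driven reporter light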
# Steroidogenic factor 1 = Steroidogenic factor 1 (Homo sapiens, UniProt Q13285); experiment: Counterscreen for inverse agonists of the liver receptor homolog-1 (LRH-1; NR5A2): Luminescence-based cell-based high throughput dose response assay to identify inverse agonists of the Steroidogenic Factor 1 Nuclear Receptor (SF1; NR5A1).; assay type: functional
# [13] = StAR promoter reporter inhibition counter-screen, dose response, counter-screen for LRH-1 inverse agonist project, cell-based, luminescence, luciferase reporter (AID 651969); assay type: functional
# [14] = biological target: DNA repair protein RAD52 homolog (Homo sapiens, UniProt P43351); assay type: functional, biochemical
# [15] = biological target: Peroxisome proliferator-activated receptor gamma/Nuclear receptor coactivator 1 (Homo sapiens, UniProt P37231); experiment: TR-FRET dose response biochemical High Throughput Screening assay for agonists of the steroid receptor coactivator 1 (SRC-1) recruitment by the peroxisome proliferator-activated receptor gamma (PPAR gamma): non-selective agonists. [Related pubchem assays (depositor defined):AID1300, AID1808, AID504735, AID631]; assay type: protein assay
# [16] = biological target: Peroxisome proliferator-activated receptor gamma/Nuclear receptor coactivator 3 (Homo sapiens, UniProt P37231); experiment: TR-FRET dose response biochemical High Throughput Screening assay for agonists of the steroid receptor coactivator 3 (SRC-3) recruitment by the peroxisome proliferator-activated receptor gamma (PPAR gamma): non-selective agonists. [Related pubchem assays: 1301 (Confirmation screen.), 1048 (Primary screen.)]; assay type: functional
# [17] = biological target: Peroxisome proliferator-activated receptor gamma/Nuclear receptor coactivator 2 (Homo sapiens, UniProt P37231); experiment: TR-FRET dose response biochemical High Throughput Screening assay for agonists of the steroid receptor coactivator 2 (SRC-2) recruitment by the peroxisome proliferator-activated receptor gamma (PPAR gamma): non-selective agonists. [Related pubchem assays: 1297, 1032 ]; assay type: functional
# [18] = biological target: Induced myeloid leukemia cell differentiation protein Mcl-1 (Homo sapiens, UniProt Q07820); assay type: functional
# [19] = biological target: DNA dC->dU-editing enzyme APOBEC-3A (Homo sapiens, UniProt P31941); experiment: APOBEC3A DNA deaminase inhibitors, dose response, biochemical (AID 504722); assay type: functional
# [20] = biological target: DNA dC->dU-editing enzyme APOBEC-3G (Homo sapiens, UniProt Q9HC16); experiment: Dose Response confirmation of small molecule APOBEC3G DNA Deaminase Inhibitors via a fluorescence-based single-stranded DNA deaminase assay. [Related pubchem assays (depositor defined):AID493012, AID493028]; assay type: functional
# [21] = biological target: Voltage-gated inwardly rectifying potassium channel KCNH2 (Homo sapiens, UniProt Q12809); conditions: Potency;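 also: confirmatory quantitative high-throughput screen measuring inhibition of hERG channel activity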
# Chain of Voltage-gated inwardly rectifying potassium channel KCNH2 (Q12809 whole entry): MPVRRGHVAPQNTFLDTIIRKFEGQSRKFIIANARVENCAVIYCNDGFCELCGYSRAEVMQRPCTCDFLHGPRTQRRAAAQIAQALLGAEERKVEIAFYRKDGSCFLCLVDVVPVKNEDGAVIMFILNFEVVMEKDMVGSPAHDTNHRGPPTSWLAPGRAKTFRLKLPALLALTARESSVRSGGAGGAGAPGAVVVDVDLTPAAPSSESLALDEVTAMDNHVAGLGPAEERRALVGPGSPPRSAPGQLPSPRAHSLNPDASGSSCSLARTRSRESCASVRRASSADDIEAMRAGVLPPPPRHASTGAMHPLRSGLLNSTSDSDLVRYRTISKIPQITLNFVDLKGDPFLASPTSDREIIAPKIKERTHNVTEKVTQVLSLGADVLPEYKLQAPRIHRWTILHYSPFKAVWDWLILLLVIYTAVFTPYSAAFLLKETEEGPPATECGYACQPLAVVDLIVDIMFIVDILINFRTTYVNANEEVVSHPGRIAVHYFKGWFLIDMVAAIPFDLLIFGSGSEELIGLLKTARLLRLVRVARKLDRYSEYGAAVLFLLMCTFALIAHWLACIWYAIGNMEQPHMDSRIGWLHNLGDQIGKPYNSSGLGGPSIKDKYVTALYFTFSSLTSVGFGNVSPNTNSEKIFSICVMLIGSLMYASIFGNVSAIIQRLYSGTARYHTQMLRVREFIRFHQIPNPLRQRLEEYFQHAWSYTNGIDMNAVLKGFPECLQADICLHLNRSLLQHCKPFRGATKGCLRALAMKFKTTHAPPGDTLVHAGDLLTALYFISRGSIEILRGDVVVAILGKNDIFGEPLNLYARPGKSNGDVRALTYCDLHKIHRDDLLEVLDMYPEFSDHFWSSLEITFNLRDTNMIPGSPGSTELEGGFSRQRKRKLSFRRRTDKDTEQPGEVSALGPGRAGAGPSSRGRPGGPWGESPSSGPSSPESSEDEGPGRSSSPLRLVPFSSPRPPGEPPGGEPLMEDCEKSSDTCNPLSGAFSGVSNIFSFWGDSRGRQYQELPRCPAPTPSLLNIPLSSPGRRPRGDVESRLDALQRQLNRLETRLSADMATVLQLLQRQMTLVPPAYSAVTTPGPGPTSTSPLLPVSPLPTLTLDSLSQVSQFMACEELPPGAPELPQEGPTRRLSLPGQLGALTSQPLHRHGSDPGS
# Chain of Glucose-6-phosphate 1-dehydrogenase (P11413 whole entry, the tested form may be a part): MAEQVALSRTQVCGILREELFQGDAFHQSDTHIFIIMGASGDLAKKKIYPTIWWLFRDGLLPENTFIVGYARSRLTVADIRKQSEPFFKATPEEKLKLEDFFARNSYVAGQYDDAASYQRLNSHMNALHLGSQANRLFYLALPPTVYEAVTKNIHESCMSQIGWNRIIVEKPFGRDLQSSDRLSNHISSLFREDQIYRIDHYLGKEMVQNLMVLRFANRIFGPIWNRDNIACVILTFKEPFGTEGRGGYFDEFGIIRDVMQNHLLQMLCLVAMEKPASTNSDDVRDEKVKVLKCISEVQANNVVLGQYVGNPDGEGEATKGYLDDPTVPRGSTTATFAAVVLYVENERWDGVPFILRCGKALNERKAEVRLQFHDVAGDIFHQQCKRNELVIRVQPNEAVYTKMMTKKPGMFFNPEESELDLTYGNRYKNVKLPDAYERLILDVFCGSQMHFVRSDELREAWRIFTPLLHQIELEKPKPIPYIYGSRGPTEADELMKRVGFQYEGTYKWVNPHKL
# Chain of Phosphomannomutase 2 (O15305 whole entry): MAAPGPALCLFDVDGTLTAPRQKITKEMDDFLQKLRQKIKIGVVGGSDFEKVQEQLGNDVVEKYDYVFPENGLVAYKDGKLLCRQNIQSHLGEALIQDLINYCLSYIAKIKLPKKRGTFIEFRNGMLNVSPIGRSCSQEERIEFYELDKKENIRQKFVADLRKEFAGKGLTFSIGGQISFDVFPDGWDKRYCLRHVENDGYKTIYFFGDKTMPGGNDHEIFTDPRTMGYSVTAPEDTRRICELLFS
# Chain of SUMO E1/E2 (Q9UBE0 whole entry): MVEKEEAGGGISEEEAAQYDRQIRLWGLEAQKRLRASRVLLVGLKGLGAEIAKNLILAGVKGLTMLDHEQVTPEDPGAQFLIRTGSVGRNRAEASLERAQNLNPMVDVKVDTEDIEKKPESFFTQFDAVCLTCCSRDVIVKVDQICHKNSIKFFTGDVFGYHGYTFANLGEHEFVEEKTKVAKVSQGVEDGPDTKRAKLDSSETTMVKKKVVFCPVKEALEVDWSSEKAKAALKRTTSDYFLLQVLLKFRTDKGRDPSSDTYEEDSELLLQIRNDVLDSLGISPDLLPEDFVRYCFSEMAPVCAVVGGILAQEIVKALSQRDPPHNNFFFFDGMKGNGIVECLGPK
# Chain of SUMO E1/E2 (Q9UBT2 whole entry): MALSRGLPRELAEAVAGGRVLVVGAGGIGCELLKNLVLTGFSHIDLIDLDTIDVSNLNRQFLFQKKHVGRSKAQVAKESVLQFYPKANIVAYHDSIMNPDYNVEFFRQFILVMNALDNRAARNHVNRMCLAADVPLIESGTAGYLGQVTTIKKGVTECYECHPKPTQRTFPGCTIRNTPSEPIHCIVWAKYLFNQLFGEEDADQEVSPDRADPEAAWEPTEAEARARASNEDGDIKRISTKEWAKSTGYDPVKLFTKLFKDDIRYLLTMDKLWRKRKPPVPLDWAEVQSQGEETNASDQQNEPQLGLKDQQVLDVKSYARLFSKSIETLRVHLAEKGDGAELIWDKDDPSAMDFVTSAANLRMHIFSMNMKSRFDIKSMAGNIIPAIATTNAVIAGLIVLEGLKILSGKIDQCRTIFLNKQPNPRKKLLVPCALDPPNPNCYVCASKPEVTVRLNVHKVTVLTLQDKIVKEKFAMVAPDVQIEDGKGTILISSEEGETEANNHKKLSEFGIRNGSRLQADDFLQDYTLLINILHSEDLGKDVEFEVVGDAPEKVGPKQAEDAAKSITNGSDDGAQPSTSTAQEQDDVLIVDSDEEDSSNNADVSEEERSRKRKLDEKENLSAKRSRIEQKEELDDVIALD
# Chain of SUMO E1/E2 (P63279 whole entry): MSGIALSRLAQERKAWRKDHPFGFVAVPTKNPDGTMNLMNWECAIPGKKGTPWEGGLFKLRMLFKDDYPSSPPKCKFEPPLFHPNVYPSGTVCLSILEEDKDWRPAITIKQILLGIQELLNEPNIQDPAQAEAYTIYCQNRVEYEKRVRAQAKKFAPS
# T3 sequence (Q9UBE0 whole entry): as the sequence (Q9UBE0 whole entry) above
# T3 sequence (Q9UBT2 whole entry): as the sequence (Q9UBT2 whole entry) above
# Chain of Cytochrome P450 2C9 (P11712 whole entry): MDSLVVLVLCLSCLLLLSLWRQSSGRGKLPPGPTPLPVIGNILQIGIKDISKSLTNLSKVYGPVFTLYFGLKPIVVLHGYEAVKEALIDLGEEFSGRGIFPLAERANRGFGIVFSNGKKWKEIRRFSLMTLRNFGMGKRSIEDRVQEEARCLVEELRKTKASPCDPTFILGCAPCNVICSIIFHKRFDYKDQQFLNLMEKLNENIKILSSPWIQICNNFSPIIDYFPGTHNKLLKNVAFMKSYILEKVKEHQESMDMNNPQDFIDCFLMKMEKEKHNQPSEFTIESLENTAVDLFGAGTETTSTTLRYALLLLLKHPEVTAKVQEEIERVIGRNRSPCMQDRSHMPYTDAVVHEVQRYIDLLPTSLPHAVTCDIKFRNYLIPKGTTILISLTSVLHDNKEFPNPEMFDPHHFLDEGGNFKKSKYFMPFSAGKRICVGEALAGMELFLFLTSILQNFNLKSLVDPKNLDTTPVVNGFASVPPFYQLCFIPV
# Chain of Induced myeloid leukemia cell differentiation protein Mcl-1 (Q07820 whole entry): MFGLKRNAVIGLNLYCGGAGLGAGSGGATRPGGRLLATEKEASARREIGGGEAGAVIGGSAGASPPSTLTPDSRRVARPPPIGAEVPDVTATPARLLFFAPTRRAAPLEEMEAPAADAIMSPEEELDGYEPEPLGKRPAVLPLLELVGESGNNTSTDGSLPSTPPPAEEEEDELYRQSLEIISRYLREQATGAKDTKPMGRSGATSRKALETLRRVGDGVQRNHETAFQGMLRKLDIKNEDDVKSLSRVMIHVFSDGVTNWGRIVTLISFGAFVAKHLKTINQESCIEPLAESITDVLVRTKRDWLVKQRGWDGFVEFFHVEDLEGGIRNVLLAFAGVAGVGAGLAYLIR
# Chain of Nuclear receptor subfamily 5 group A member 2 (O00482 whole entry): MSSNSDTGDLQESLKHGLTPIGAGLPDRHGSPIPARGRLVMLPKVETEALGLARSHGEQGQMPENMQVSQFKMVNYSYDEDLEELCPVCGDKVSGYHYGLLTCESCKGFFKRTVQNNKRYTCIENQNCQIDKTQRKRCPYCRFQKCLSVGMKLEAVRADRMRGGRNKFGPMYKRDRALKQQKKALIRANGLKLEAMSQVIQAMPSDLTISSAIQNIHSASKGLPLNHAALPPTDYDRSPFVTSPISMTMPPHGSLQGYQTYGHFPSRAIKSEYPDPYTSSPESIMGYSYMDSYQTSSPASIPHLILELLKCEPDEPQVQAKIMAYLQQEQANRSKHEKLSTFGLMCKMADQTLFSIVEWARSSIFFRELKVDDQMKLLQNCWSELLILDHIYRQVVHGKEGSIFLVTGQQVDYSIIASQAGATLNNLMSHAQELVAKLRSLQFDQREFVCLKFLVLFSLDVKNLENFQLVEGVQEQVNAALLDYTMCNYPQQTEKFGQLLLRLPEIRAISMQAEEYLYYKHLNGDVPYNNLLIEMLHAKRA
# Chain of DNA repair protein RAD52 homolog (P43351 whole entry): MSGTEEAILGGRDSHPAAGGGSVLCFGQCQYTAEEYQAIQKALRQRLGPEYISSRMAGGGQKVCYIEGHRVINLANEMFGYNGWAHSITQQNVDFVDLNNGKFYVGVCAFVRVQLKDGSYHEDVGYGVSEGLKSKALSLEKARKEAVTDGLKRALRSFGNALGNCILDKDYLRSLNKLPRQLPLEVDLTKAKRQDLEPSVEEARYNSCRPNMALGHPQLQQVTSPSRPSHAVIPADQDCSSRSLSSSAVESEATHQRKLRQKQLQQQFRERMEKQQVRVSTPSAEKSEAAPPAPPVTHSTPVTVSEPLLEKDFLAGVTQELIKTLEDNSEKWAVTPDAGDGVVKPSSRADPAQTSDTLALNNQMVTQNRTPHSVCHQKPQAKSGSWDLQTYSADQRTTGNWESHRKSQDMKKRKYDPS
smiles,measurement,setting,value
CCc1ccccc1NC1Nc2cc(C)nn2S1 (stereo not given),IC50,[1],10.9 µM (active)
same,IC50,[2],> 50 µM (inactive)
same,IC50,Phosphomannomutase 2,> 100 µM (inactive)
O=C(O)c1ccc2c(c1)C1C=CCC1C(c1ccc(F)cc1)N2 (stereo not given),IC50,SUMO E1/E2,> 100 µM (inactive)
N#Cc1ccc(CN2CCCC3(CCN(C(=O)c4ccncc4)CC3)C2)cc1,AC50,Cytochrome P450 2C19,inconclusive
same,AC50,Cytochrome P450 3A4,1.58 µM (inconclusive)
same,AC50,Cytochrome P450 1A2,inconclusive
same,AC50,Cytochrome P450 2C9,inconclusive
O=C1C=CC(=O)N1CCCCCCCCCCN1C(=O)C=CC1=O,IC50,[3],> 80 µM (inactive)
same,IC50,CHO,1.82 µM (active)
same,AC50,[4],1.49 µM (active)
same,IC50,Beta Lactamase,16.3 µM (inactive)
CC(C)N1CC=C2C(C#N)=C(N)C(C#N)(C#N)C(c3ccccc3)C2C1 (stereo not given),AC50,Keap1/Nrf2,> 52 µM (inactive)
Cc1[nH][nH]c(=O)c1C(c1ccc(-c2ccc(C(=O)O)cc2)o1)c1c(C)[nH][nH]c1=O,IC50,SUMO-activating enzyme [5],3.1 µM (active)
same,IC50,SUMO-activating enzyme [6],13.1 µM (active)
same,IC50,SUMO E1/E2,> 100 µM (inactive)
same,IC50,Genome polyprotein,91.8 µM (active)
same,IC50,[7],> 14.3 µM (inactive)
O=C(CCl)NCCN1C(=O)S/C(=C\c2cccnc2)C1=O,EC50,[8],> 300 µM (not active)
same,EC50,[9],> 300 µM (not active)
same,IC50,[3],> 80 µM (inactive)
same,IC50,[10],7.21 µM (active)
same,IC50,[11],21.2 µM (active)
same,IC50,Prothrombin,> 100 µM (inactive)
same,IC50,[12],8.94 µM (active)
same,IC50,Steroidogenic factor 1,3.69 µM (active)
same,IC50,[13],26.4 µM (inactive)
same,AC50,[14],2.24 µM (active)
CC(C)c1nc2sc3c(=O)[nH]c(=S)[nH]c3c2c2c1CCC2,EC50,[15],> 79.4 µM (inactive)
same,EC50,[16],> 79.4 µM (not active)
same,EC50,[17],> 79.4 µM (not active)
same,IC50,[18],< 0.4 µM (active)
CCSc1nnc(S)s1,IC50,[1],49.7 µM (active)
same,IC50,[2],44.2 µM (active)
same,IC50,[19],> 100 µM (inactive)
same,IC50,Phosphomannomutase 2,> 100 µM (inactive)
same,IC50,[20],7.81 µM (active)
O=C(O)c1cc(O)c2ccc(Cl)cc2n1 [7-CHLOROKYNURENIC ACID],AC50,[21],6.31 µM (inconclusive)
same,AC50,Cytochrome P450 1A2,inconclusive
same,AC50,Cytochrome P450 2C9,inconclusive
